This is an account of results in ChEMBL document CHEMBL5365461, “Degradation of Cyclin-Dependent Kinase 9/Cyclin T1 by Optimized Microtubule-Associated Protein 1 Light Chain 3 Beta-Recruiting Coumarin Analogs” (J Med Chem, 2023).

Calls of active or inactive are those of the source. The calls are words filed in the database; no cut-off is given here.

For series [1], the target named is CDK9/cyclin T1 (Homo sapiens) (UniProt O60563+P50750). Briefly: Induction of CDK9/CyclinT1 degradation in human U2932 cells at 100 nM measured after 24 hrs by immunoblotting analysis. The class given is cell-based.
The target in series [2] is Cyclin-dependent kinase 9 (Homo sapiens) (UniProt P50750). Briefly: Induction of CDK9 42 kDa degradation in human U2932 cells by immunoblotting analysis. The class given is cell-based. The settings on record: dose 1-1000 nM.
For series [3] the target is unchanged. In words: Induction of CDK9 42 kDa degradation in human U2932 cells at 100 nM by immunoblotting analysis. The class given is cell-based. The settings on record: time 1-24 hrs, TDE = time-dependent effect.
Series [4] deals with Cyclin-dependent kinase 1 (Homo sapiens) (UniProt P06493). In words: Induction of CDK1 degradation in human U2932 cells at 100 nM incubated for 24 hrs by immunoblotting analysis. The class given is cell-based.
Series [5] deals with HCT-8. Briefly: Cytotoxicity against human HCT-8 cells assessed as inhibition of cell growth measured after 72 hrs by CCK-8 assay. The class given is functional, cell-based.
Series [6] has as its system KP-4. Briefly: Cytotoxicity against human KP-4 cells assessed as inhibition of cell growth measured after 72 hrs by CCK-8 assay. The class given is functional, cell-based.
The test system of series [7] is U2932. Briefly: Downregulation of RNAP2 phosphorylation at serine 5 residue in human U2932 cells at 10 to 1000 nM incubated for 6 hrs by immunoblotting analysis. The class given is functional, cell-based. Particulars: dose 10-1000 nM.
Series [8] relates to U2932. In words: Induction of apoptosis in human U2932 cells assessed as late apoptotic cells at 1000 nM incubated for 24 hrs by AnnexinV-FITC/PI staining based flow cytometry analysis (reference value: 5.95%). The class given is functional.
Series [9] concerns the target Cyclin-dependent kinase 9 (Homo sapiens) (UniProt P50750). Briefly: Induction of CDK9 42 kDa degradation in human U2932 cells at 500 nM incubated for 12 hrs in presence of 5,7-Dihydroxy-4-methylcoumarin by immunoblotting analysis. The class given is cell-based.
For series [10] the target is unchanged. In words: Induction of CDK9 42 kDa degradation in human U2932 cells at 500 nM incubated for 12 hrs in presence of MLN4924 by immunoblotting analysis. The class given is cell-based.
The target is the same in series [11]. In words: Induction of CDK9 42 kDa degradation in human U2932 cells at 500 nM incubated for 12 hrs in presence of MG132 by immunoblotting analysis. The class given is cell-based.
Series [12] deals with U2932. In words: Induction of LC3B […] in human U2932 cells at 500 nM incubated for 12 hrs in presence of BafA1 by Co-immunoprecipitation analysis. The class given is cell-based.
Series [13] concerns the target Cyclin-dependent kinase 9 (Homo sapiens) (UniProt P50750). Briefly: Induction of CDK9 degradation in LC3B knockout HEK293T cells at 100 nM incubated for 24 hrs by immunoblotting analysis. The class given is cell-based.
Series [14] can be described thus: Tmax in CD-1 mouse at 5 mg/kg, ip measured after 24 hrs by LC-MS/MS analysis. The class given is ADME, organism-based. The settings on record: in vivo.
Series [15] relates to MV4-11. In words: Antitumor activity against human MV4-11 cells xenografted in mouse assessed as reduction in tumor growth at 5 mg/kg, ip qd measured after 15 days. The settings on record: time 15.0 day. The class given is functional, organism-based.
The test system of series [16] is MV4-11. Briefly: Antitumor activity against human MV4-11 cells xenografted in mouse assessed as tumor growth inhibition at 5 mg/kg, ip qd measured after 15 days. The class given is functional. Particulars: MV4-11, 360 h, time 15 day, read-out: TGI.
Series [17] is described as follows: Toxicity in mouse xenografted with human MV4-11 cells assessed as change in body weight at 5 mg/kg, ip qd measured after 15 days. The settings on record: in vivo, 360 h, time 15 day. The class given is organism-based.
For series [18], the system named is MV4-11. Briefly: Antitumor activity against human MV4-11 cells xenografted in mouse assessed as reduction in CDK9 level in tumor at 5 mg/kg, ip qd measured after 15 days by immunoblotting analysis. The class given is functional, organism-based. Particulars: time 15.0 day.
Series [19] has as its system MV4-11. Briefly: Antitumor activity against human MV4-11 cells xenografted in mouse assessed as reduction in c-Myc level in tumor at 5 mg/kg, ip qd measured after 15 days by immunoblotting analysis. The class given is functional, organism-based. The settings on record: time 15.0 day.
The subject of series [20] is MV4-11. In words: Antitumor activity against human MV4-11 cells xenografted in mouse assessed as reduction in Mcl level in tumor at 5 mg/kg, ip qd measured after 15 days by immunoblotting analysis. The class given is functional, organism-based. Particulars: time 15.0 day.

Sequence of Cyclin-dependent kinase 9 (Homo sapiens) (P50750 whole entry): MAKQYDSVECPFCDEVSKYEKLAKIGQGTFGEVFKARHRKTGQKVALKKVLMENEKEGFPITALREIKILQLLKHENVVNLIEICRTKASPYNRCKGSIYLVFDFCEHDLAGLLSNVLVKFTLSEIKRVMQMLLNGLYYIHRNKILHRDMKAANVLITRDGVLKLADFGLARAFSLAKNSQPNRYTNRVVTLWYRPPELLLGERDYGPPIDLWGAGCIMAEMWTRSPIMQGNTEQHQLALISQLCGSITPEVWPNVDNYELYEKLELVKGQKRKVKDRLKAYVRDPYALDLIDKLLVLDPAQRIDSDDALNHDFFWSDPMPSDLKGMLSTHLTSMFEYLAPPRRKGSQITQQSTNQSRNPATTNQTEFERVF
Sequence of Cyclin-dependent kinase 1 (Homo sapiens) (P06493 whole entry, looked up): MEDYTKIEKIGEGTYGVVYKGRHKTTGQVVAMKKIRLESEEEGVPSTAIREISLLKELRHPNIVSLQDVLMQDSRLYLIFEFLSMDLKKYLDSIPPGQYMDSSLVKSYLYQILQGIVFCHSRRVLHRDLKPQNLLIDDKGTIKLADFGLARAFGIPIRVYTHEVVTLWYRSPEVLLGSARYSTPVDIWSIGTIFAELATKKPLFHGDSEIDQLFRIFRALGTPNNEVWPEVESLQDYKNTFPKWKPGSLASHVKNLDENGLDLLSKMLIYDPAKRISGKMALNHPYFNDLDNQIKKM

As to `Cc1cc(=O)oc2cc(OCCCN3CCC(C(=O)Nc4ncc(SCc5ncc(C(C)(C)C)o5)s4)CC3)cc(O)c12`, the result in series [1], in series [4], in series [5], in series [6], in [10] and in series [11] was Active. The result in series [12] was Active. Besides, the Activity result is “Dose-Dependent Effect” in [2], “Tde” in series [3] and 38.7% in series [8]. In addition, the outcome in series [7], in series [9] and in [13] was inactive. Besides, the Tmax in series [14] was 15 min.

As to `Cc1cc(=O)oc2cc(O)cc(OCCCCCN3CCC(C(=O)Nc4ncc(SCc5ncc(C(C)(C)C)o5)s4)CC3)c12`, the Activity result in series [2] is “Dose-Dependent Effect”; in [3], “Tde”; in [8], 40.9%; in series [17], “Non-Toxic”. The outcome in series [5], in series [6], in series [10], in [11], in [12] and in [15] was Active. The outcome in series [18], in series [19] and in series [20] was Active. Moreover, the result in [7], in series [9] and in series [13] was inactive. The Tmax in [14] worked out at 15 min. In addition, the inhibition in vivo at 5 mg/kg in series [16] amounted to 52%.
